Common to all, as to test: NCI anticancer screen, dose series, 48 h
The subject of assay [1] is UACC-62 melanoma.
Assay [2] concerns IGROV1 ovarian.
The test system of assay [3] is OVCAR-8 ovarian.
The test system of assay [4] is HCC-2998 colon.
Assay [5] relates to K-562 leukemia.
Assay [6] relates to SW-620 colon.
Assay [7] relates to EKVX NSCLC.
The subject of assay [8] is UACC-257 melanoma.
Assay [9] concerns SK-MEL-5 melanoma.
For assay [10], the system named is NCI-H522 lung.

Our source for the TGI and GI50 values is PubChem BioAssay (NCI).

Values joined by “and” are separate entries in the source; they are usually repeats but may differ in a detail not shown here. Identical values can stand only once.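 Results reflect a 48-hour exposure of cells in 96-well plates to compound at five concentrations. At the GI50, growth is halved. TGI marks complete inhibition of growth.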 Bounds are passed on as bounds.

As for `COc1ccc2c(c1)CC[C@@H]1C2CC[C@]2(C)C(=O)NC(=O)CC12` (stereo partly specified), the TGI in assay [1], in assay [2], in [3], in assay [4], in assay [5] and in assay [6] was greater than 100 µM in each case. Moreover, the TGI in [7], in assay [8], in assay [9] and in assay [10] was greater than 100 µM throughout.
Take `COc1ccc(/C=C(\C#N)c2cc3ccccc3n2C)cc1`: the GI50 in assay [1] was 0.504 µM; in [2] it was 0.526 µM; in assay [3], 0.56 µM; in assay [4] it was 0.865 µM; in assay [5], 0.178 µM; in assay [6] it was 0.357 µM. Besides, the GI50 was 0.765 µM in assay [7], 3.32 µM in assay [8], 0.504 µM in [9] and 0.407 µM in assay [10]. The TGI in assay [1] is greater than 100 µM; in assay [2] it was greater than 100 µM; in assay [3], greater than 100 µM; in [4], 5.98 µM; in assay [5], greater than 100 µM; in assay [6] it was greater than 100 µM. For the same compound, the TGI in [7] is greater than 100 µM; in assay [8], greater than 100 µM; in assay [9], 16.9 µM; in assay [10], 5.03 µM.
For `O=C(NNS(=O)(=O)c1cc(C(F)(F)F)cc(C(F)(F)F)c1)c1cnn(-c2ccc(Cl)cc2)c1C(F)(F)F`, the GI50 in [1] was 14.5 µM; in assay [2], 17.4 µM; in assay [3] it was 16.1 µM; in assay [4], 16.4 µM; in [5], 23.1 µM; in [6], 17.7 µM. Besides, the GI50 in assay [7] is 16 µM; in assay [8] it was 15.2 µM; in assay [9], 14.3 µM; in assay [10], 18.8 µM. Further, the TGI was 30 µM in assay [1]; 38.5 µM in assay [2]; 51.7 µM in assay [3]; 31 µM in assay [4]; 65.7 µM in assay [5]; 38.7 µM in assay [6]. The TGI was 43.2 µM in assay [7], 43.7 µM in [8], 29.6 µM in assay [9] and 43.1 µM in assay [10].
As for `COC(=O)C1=C(C(=O)OC)C2(C(=O)OC)OC1(OC)C(C1(C(=O)OC)C(C(=O)OC)=C1C(=O)OC)=C2C(=O)OC` (stereo unspecified), the TGI in assay [1], in assay [2], in assay [3], in assay [4], in assay [5] and in [6] was greater than 100 µM each time. Further, the TGI in [7], in [8], in assay [9] and in assay [10] was greater than 100 µM throughout.
On to `Oc1ccc2ccccc2c1N=Nc1ccccc1`, for which the TGI in [1], in assay [2], in [3], in [4], in assay [5] and in assay [6] was greater than 100 µM each time. The TGI in [7], in assay [8], in [9] and in [10] was greater than 100 µM throughout. The GI50 in assay [7] was 15.5 µM and > 62.4 µM.
In the case of `COc1ccc(C(O)c2cc3c(N)c(C(=O)Nc4cccc(Br)c4)sc3nc2C)cc1` (stereo unspecified), the GI50 in [1] is 0.309 µM; in assay [2], 0.231 µM; in assay [3], 0.139 µM; in assay [4], 0.121 µM; in [5] it was 0.107 µM; in assay [6], 0.126 µM. The GI50 was 0.197 µM in [7], 6.4 µM in [8], 0.123 µM in [9] and 0.0814 µM in assay [10]. Besides, the TGI in [1] is greater than 38.6 µM; in assay [2], greater than 100 µM; in assay [3], greater than 55.6 µM; in assay [4], 15.5 µM; in [5], greater than 100 µM; in assay [6] it was greater than 100 µM. Moreover, the TGI in assay [7] was greater than 100 µM; in assay [8], greater than 50.4 µM; in [9], 0.47 µM; in assay [10], 1.85 µM.
For the compound `O=c1[nH]c(=S)[nH]c(O)c1/C=C1\C=CC=N1`, the TGI in [1] is 35.6 µM; in [2], 65 µM; in assay [3] it was 17.9 µM; in assay [4] it was 25 µM; in [5], greater than 100 µM; in [6], 23.5 µM. Further, the TGI in [7] was 56.7 µM; in [8], 72.4 µM; in assay [9], greater than 100 µM; in assay [10], 3.59 µM.
As to `C#Cc1ccc(NC(=O)c2ccc(/C=C/C(=O)c3nccn3C)cc2)cc1`, the GI50 in [1] is 0.481 µM; in [2], 0.407 µM; in assay [3] it was 0.717 µM; in assay [4] it was 0.434 µM; in [5], 0.136 µM; in [6], 0.382 µM. Further, the GI50 is 0.565 µM in assay [7], 0.66 µM in assay [8], 0.49 µM in [9] and 0.518 µM in assay [10]. Besides, the TGI is 1.12 µM in assay [1]; 0.884 µM in assay [2]; 8.79 µM in [3]; 0.804 µM in [4]; 6.55 µM in assay [5]; 1.01 µM in [6]. The TGI worked out at 1.45 µM in assay [7], 2.21 µM in [8], 1.01 µM in assay [9] and 1.37 µM in assay [10].
As to `CC#CC(=O)N1CCC[C@H]1c1nc(-c2ccc(C(=O)Nc3ccccn3)cc2)c2c(N)nccn12`, the GI50 was 34.8 µM in assay [1]; 18 µM in [2]; greater than 80.4 µM in assay [3]; greater than 100 µM in [4]; greater than 88.2 µM in assay [5]; greater than 100 µM in assay [6]. Moreover, the GI50 was 35 µM in [7], 50.1 µM in assay [8], 40.5 µM in assay [9] and 13.9 µM in assay [10]. Moreover, the TGI in [1] is greater than 100 µM; in assay [2], greater than 83.8 µM; in assay [3], greater than 100 µM; in assay [4], greater than 100 µM; in assay [5], greater than 100 µM; in assay [6], greater than 100 µM. Besides, the TGI in [7], in [8], in [9] and in assay [10] was greater than 100 µM each time.
